Reference: paper PMC10010643 (Cancer Chemotherapy and Pharmacology, 2023)
“And” between values parts separate entries of the source, which are not always exact repeats. Equal values may be shown once. Read-outs that look alike come from different tables or passages of the source.

Assays:
[1] = Safety and tolerability, Part B multiple ascending-dose phase in healthy participants; format: in vivo, human
Experimental: (§1) Following review of safety, tolerability, and PK data from cohorts A1–A6, participants received twice-daily doses (BID) under fasted conditions on days 1–9 and a final single dose in the morning of day 10. […] There was one treatment period and all participants stayed at the CRU from day − 1 until the morning of day 11 (24 h after the final dose on day 10). All were to return for a follow-up visit 5–7 days after their final dose.
Safety and tolerability assessments included adverse event (AE) monitoring, physical examinations, laboratory assessments (hematology, clinical chemistry, and urinalysis), vital signs (blood pressure, pulse rate, and body temperature) and ECG.
No formal statistical assessment was performed for the safety analysis.

[2] = Plasma PK, Part B multiple oral BID doses in healthy participants; format: in vivo, human; settings: for concentration at 12 h / AUC / Cmax / Tmax / half-life / Vd/F: human, plasma, oral; for concentration at 12 h: read-out: Trough (12 h post-dose) concentration (Cmin), geometric mean (range); for AUC: read-out: AUC0-τ, geometric mean (CV%); for Cmax: read-out: Cmax, geometric mean (CV%); for half-life: read-out: t½, arithmetic mean (SD) (converted); for Vd/F: read-out: Vz/F, geometric mean (CV%)
Experimental: as §1
Blood samples (4 mL) were collected in K3 EDTA tubes by venipuncture or cannulation. In Part A, samples were taken pre-dose and at 0.5, 1, 1.5, 2, 3, 4, 6, 8, 12, 16, 24, 36 and 48 h post-dose. In part B, samples were taken pre-dose on days 1 (pre-AM dose) and 10 (pre-final dose) and at 0.5, 1, 1.5, 2, 3, 4, 6, 8 and 12 h post-AM dose for day 1 and post-final dose for day 10. Samples were also taken on days 4–9 pre-AM dose, on day 11 at 24 and 36 h post-final dose, and on day 12 at 48 h post-final dose. Blood samples were centrifuged at 1500 g for 10 min at […] and split into two plasma aliquots.
Urine was collected by spot collection in Part A only before dosing and between 0–6, 6–12, 12–24, and 24–48 h post-dose. Blood and urine aliquots were stored in polypropylene tubes at − 70 °C until bioanalysis.
In Part B, the plasma PK parameters included AUC over a dosing interval (AUC0–τ), AUC0–∞, Cmax, Tmax, t½, minimum observed plasma concentration (Cmin), observed accumulation ratio based on AUC0–τ (RAAUC0–τ) and observed accumulation ratio based on Cmax (RACmax). Further details can be found in the Supplementary materials.
Dose proportionality was analyzed for exposure parameters after fasted doses. The power model was used on AUC0–∞, AUC0–tlast, and Cmax on day 1 in Part A. Data were analyzed over two dose ranges: 50–400 mg (50 mg capsules) and 5–50 mg (5 mg capsules). An analysis of variance was used on AUC0–τ and Cmax on day 10 in Part B. The effect of food on AUC0–∞, AUC0–tlast, and Cmax at 50 mg in Part A was investigated using a mixed model which included treatment as a fixed effect and subject as a random effect.

[3] = parameters: method as in PMID 36154172; settings: in mice; cited from earlier work
liver fibrosis = system: liver fibrosis; parameters: method as in PMID 36154172; settings: CCl4-induced; cited from earlier work
[4] = 50 mg, 50 mg BID, fasted, Day 1
[5] = 50 mg, 50 mg BID, fasted, Day 10
[6] = 100 mg, 100 mg BID, fasted, Day 1
[7] = 100 mg, 100 mg BID, fasted, Day 10

SMILES: OC[C@H]1O[C@H](Sc2cncc(Br)c2)[C@H](O)[C@@H](n2cc(-c3cc(F)c(F)c(F)c3)nn2)[C@H]1O [GB1211]
- Number of TEAEs ([1]; 50 mg BID): 8
- Participants discontinued due to TEAEs ([1]; 50 mg BID): 0 n (%)
- Participants with SAEs ([1]; 50 mg BID): 0 n (%)
- Participants with TEAEs ([1]; 50 mg BID): 4 (50.0) n (%) and 4 (50.0%) n (%)
- Severity (all TEAEs): Mild ([1]; 50 mg BID): 2 (25.0) n (%)
- Severity (all TEAEs): Moderate ([1]; 50 mg BID): 2 (25.0) n (%)
- Severity (all TEAEs): Severe ([1]; 50 mg BID): 0 n (%)
- Severity (all TEAEs): Total ([1]; 50 mg BID): 4 (50.0) n (%)
- Severity (possibly related to study treatment): Mild ([1]; 50 mg BID): 2 (25.0) n (%)
- Severity (possibly related to study treatment): Moderate ([1]; 50 mg BID): 2 (25.0) n (%)
- Severity (possibly related to study treatment): Severe ([1]; 50 mg BID): 0 n (%)
- Severity (possibly related to study treatment): Total ([1]; 50 mg BID): 4 (50.0) n (%)
- TEAE Abdominal distension, participants ([1]; 50 mg BID): 0 n (%)
- TEAE Abdominal pain upper, participants ([1]; 50 mg BID): 0 n (%)
- TEAE Abdominal pain, participants ([1]; 50 mg BID): 0 n (%)
- TEAE Arthralgia, participants ([1]; 50 mg BID): 0 n (%)
- TEAE Constipation, participants ([1]; 50 mg BID): 0 n (%)
- TEAE Dysuria, no. of AEs ([1]; 50 mg BID): 1
- TEAE Dysuria, participants ([1]; 50 mg BID): 1 (12.5%) n (%)
- TEAE Gastrointestinal disorders, participants ([1]; 50 mg BID): 0 n (%)
- TEAE Headache, no. of AEs ([1]; 50 mg BID): 5
- TEAE Headache, participants ([1]; 50 mg BID): 4 (50.0%) n (%)
- TEAE Injury, poisoning and procedural complications, no. of AEs ([1]; 50 mg BID): 1
- TEAE Injury, poisoning and procedural complications, participants ([1]; 50 mg BID): 1 (12.5%) n (%)
- TEAE Limb injury, no. of AEs ([1]; 50 mg BID): 1
- TEAE Limb injury, participants ([1]; 50 mg BID): 1 (12.5%) n (%)
- TEAE Menstruation irregular, no. of AEs ([1]; 50 mg BID): 1
- TEAE Menstruation irregular, participants ([1]; 50 mg BID): 1 (12.5%) n (%)
- TEAE Musculoskeletal and connective tissue disorders, participants ([1]; 50 mg BID): 0 n (%)
- TEAE Nervous system disorders, no. of AEs ([1]; 50 mg BID): 5
- TEAE Nervous system disorders, participants ([1]; 50 mg BID): 4 (50.0%) n (%)
- TEAE Pain in extremity, participants ([1]; 50 mg BID): 0 n (%)
- TEAE Pollakiuria, participants ([1]; 50 mg BID): 0 n (%)
- TEAE Renal and urinary disorders, no. of AEs ([1]; 50 mg BID): 1
- TEAE Renal and urinary disorders, participants ([1]; 50 mg BID): 1 (12.5%) n (%)
- TEAE Reproductive system and breast disorders, no. of AEs ([1]; 50 mg BID): 1
- TEAE Reproductive system and breast disorders, participants ([1]; 50 mg BID): 1 (12.5%) n (%)
- Number of TEAEs considered moderate ([1]; 50 mg BID cohort): Two
- Number of TEAEs ([1]; 100 mg BID): 8
- Participants discontinued due to TEAEs ([1]; 100 mg BID): 0 n (%)
- Participants with SAEs ([1]; 100 mg BID): 0 n (%)
- Participants with TEAEs ([1]; 100 mg BID): 3 (37.5) n (%) and 3 (37.5%) n (%)
- Severity (all TEAEs): Mild ([1]; 100 mg BID): 3 (37.5) n (%)
- Severity (all TEAEs): Moderate ([1]; 100 mg BID): 0 n (%)
- Severity (all TEAEs): Severe ([1]; 100 mg BID): 0 n (%)
- Severity (all TEAEs): Total ([1]; 100 mg BID): 3 (37.5) n (%)
- Severity (possibly related to study treatment): Mild ([1]; 100 mg BID): 3 (37.5) n (%)
- Severity (possibly related to study treatment): Moderate ([1]; 100 mg BID): 0 n (%)
- Severity (possibly related to study treatment): Severe ([1]; 100 mg BID): 0 n (%)
- Severity (possibly related to study treatment): Total ([1]; 100 mg BID): 3 (37.5) n (%)
- TEAE Abdominal distension, no. of AEs ([1]; 100 mg BID): 1
- TEAE Abdominal distension, participants ([1]; 100 mg BID): 1 (12.5%) n (%)
- TEAE Abdominal pain upper, no. of AEs ([1]; 100 mg BID): 1
- TEAE Abdominal pain upper, participants ([1]; 100 mg BID): 1 (12.5%) n (%)
- TEAE Abdominal pain, participants ([1]; 100 mg BID): 0 n (%)
- TEAE Arthralgia, no. of AEs ([1]; 100 mg BID): 1
- TEAE Arthralgia, participants ([1]; 100 mg BID): 1 (12.5%) n (%)
- TEAE Constipation, no. of AEs ([1]; 100 mg BID): 2
- TEAE Constipation, participants ([1]; 100 mg BID): 2 (25.0%) n (%)
- TEAE Dysuria, participants ([1]; 100 mg BID): 0 n (%)
- TEAE Gastrointestinal disorders, no. of AEs ([1]; 100 mg BID): 4
- TEAE Gastrointestinal disorders, participants ([1]; 100 mg BID): 2 (25.0%) n (%)
- TEAE Headache, participants ([1]; 100 mg BID): 0 n (%)
- TEAE Injury, poisoning and procedural complications, participants ([1]; 100 mg BID): 0 n (%)
- TEAE Limb injury, participants ([1]; 100 mg BID): 0 n (%)
- TEAE Menstruation irregular, participants ([1]; 100 mg BID): 0 n (%)
- TEAE Musculoskeletal and connective tissue disorders, no. of AEs ([1]; 100 mg BID): 2
- TEAE Musculoskeletal and connective tissue disorders, participants ([1]; 100 mg BID): 1 (12.5%) n (%)
- TEAE Nervous system disorders, participants ([1]; 100 mg BID): 0 n (%)
- TEAE Pain in extremity, no. of AEs ([1]; 100 mg BID): 1
- TEAE Pain in extremity, participants ([1]; 100 mg BID): 1 (12.5%) n (%)
- TEAE Pollakiuria, no. of AEs ([1]; 100 mg BID): 2
- TEAE Pollakiuria, participants ([1]; 100 mg BID): 2 (25.0%) n (%)
- TEAE Renal and urinary disorders, no. of AEs ([1]; 100 mg BID): 2
- TEAE Renal and urinary disorders, participants ([1]; 100 mg BID): 2 (25.0%) n (%)
- TEAE Reproductive system and breast disorders, participants ([1]; 100 mg BID): 0 n (%)
- Participants with a TEAE possibly related to treatment, GB1211 ([1]; Part B): 7
- Number of TEAEs on GB1211 ([1]; Part B, all GB1211 doses): 16
- Participants with TEAEs on GB1211 ([1]; Part B, all GB1211 doses): 7
- CL/F, geometric mean (CV%) ([2]; 50 mg BID, fasted, Day 10): 9.75 (29.0) L/h
- Cmin, geometric mean (CV%) ([2]; 50 mg BID, fasted, Day 10): 249 (26.2) ng/mL
- CL/F, geometric mean (CV%) ([2]; 100 mg BID, fasted, Day 10): 13.3 (21.1) L/h
- Cmin, geometric mean (CV%) ([2]; 100 mg BID, fasted, Day 10): 338 (27.5) ng/mL
- t½, arithmetic mean (SD) ([2]; 100 mg BID, fasted, Day 10): 13.1 (2.65) h
- Dose proportionality of AUC0–τ and Cmax ([2]; 50 and 100 mg BID, day 10): sub-proportional manner
- Time to steady-state after the start of the BID multiple-dosing period ([2]; by the morning of day 3): 48 h
- concentration at 12 h ([2]; 50 mg BID, day 10): 249 ng/mL
- AUC [2, 4]: 2220 ng·h/mL
- Cmax [2, 4]: 330 ng/mL
- Tmax ([2]; 50 mg, 50 mg BID, fasted, Day 1, read-out: Tmax, median (min–max)): 4 h
- AUC [2, 5]: 5130 ng·h/mL
- Cmax [2, 5]: 658 ng/mL
- Tmax ([2]; 50 mg, 50 mg BID, fasted, Day 10, read-out: Tmax, median (min–max)): 2.5 h
- half-life [2, 5]: ~21.4 h
- concentration at 12 h ([2]; 100 mg BID, day 10): 338 ng/mL
- AUC [2, 6]: 3560 ng·h/mL
- Cmax [2, 6]: 546 ng/mL
- Tmax ([2]; 100 mg, 100 mg BID, fasted, Day 1, read-out: Tmax, median (min–max)): 3 h
- AUC [2, 7]: 7530 ng·h/mL
- Cmax [2, 7]: 975 ng/mL
- Tmax ([2]; 100 mg, 100 mg BID, fasted, Day 10, read-out: Tmax, median (min–max)): 3 h
- half-life [2, 7]: ~13.1 h
- Tmax ([2]; multiple BID doses, days 1 and 10, read-out: Median Tmax, range): 2.5 to 4 h
- Vd/F ([2]; 50 mg BID, fasted, Day 10): 311 L
- Vd/F ([2]; 100 mg BID, fasted, Day 10): 248 L
- Accumulation in plasma with multiple dosing ([2]; multiple BID oral dosing): ~ twofold
- Time to steady-state ([2]; multiple BID oral dosing): ≤ 3 days
- Oral bioavailability [3]: 68%
- Fibrosis in vivo, liver (liver fibrosis): reducing fibrosis
